Laboratory results published in US7132546B2, “Aniline derivatives or salts thereof and cytokine production inhibitors containing the same” (Ishihara Sangyo Kaisha, Ltd., priority 2000, dated 2006).

Legend:
[1] = tested on: interleukin 5 (IL-5) production; assay: Cytokine production inhibitory effect: IL-5 production by murine spleen cells treated with anti-mouse CD3 antibody and IL-2 (ELISA); type: cell-based, Balb/c mice; conditions: anti-CD3 antibody + IL-2, 40 to 48 hours, read-out: IL-5 production inhibitory ratio (%); for inhibition at 100 ppm: test compound 100 ppm
Procedure: (§1) Murine spleen cells were treated with anti-mouse CD3 antibody and IL-2 to induce cytokine production. The test compounds were added to the cytokine production system to evaluate their inhibitory effect. Namely, anti-mouse CD3 antibody adjusted to from 10 to 20 μg/ml with borate buffered physiological saline (pH 8.5) was pipetted into a 96-well cell culture plate in an amount of 50 μl/well and left to stand at 4° C. for 18 hours. The unreacted solution was removed, washing with Hank's buffer solution was carried out once, and IL-2 adjusted to 10 ng/ml with a RPMI liquid containing 10% fetal bovine serum (FCS) was pipetted in an amount of 50 μl/well. For the negative control group, a solution alone without anti-CD3 antibody nor IL-2 was applied. Then, the diluted solution of each of the test compounds (concentration: 100 ppm unless otherwise specified) was pipetted in an amount of 50 μl/well, and a cell suspension of 1×10^7 cells/ml, prepared from spleen of Balb/c mice (female, 7 to 10 week old) was pipetted thereinto in an amount of 100 μl/well. After cultivation in an incubator (37° C., 5% carbon dioxide gas) for from 40 to 48 hours, the culture supernatant was recovered to measure the cytokine production amount by ELISA method.
(§2) With respect to interleukin 5 (IL-5) as a typical Th2 type cytokine and interferon γ (IFN-γ) as a typical Th1 type cytokine, measurements were carried out by the following methods, respectively. Namely, quantitative determination of IL-5 was carried out by the following ELISA method. First, rat anti-mouse IL-5 antibody (Endogen Code No. MM-550C) as a primary antibody was diluted with carbonate buffer solution (pH 9.5) to 1 μg/ml, and spread in a 96 well plate (IWAKI, Code No. 3860-096) in an amount of 50 μl/well for coating at 4° C. overnight (16 to 24 hours). Then, the plate was subjected to blocking at 37° C. for 2 hours by phosphate buffered physiological saline containing 10% FCS (pH 7.2) (blocking buffer solution) (250 μl/well). The plate was washed with PBS (washing buffer) containing 0.05% Tween 20 (Nacalai Tesque, Code No. 281-51) four times, and a diluted liquid of the culture supernatant was spread in an amount of 50 μl/well, followed by incubation at room temperature for 1 hour. For preparation of a standard line, recombinant mouse IL-5 (R&D systems, Code No. 405-ML) was employed. The plate was washed with a washing buffer four times, and biotin-labeled rat anti-mouse IL-5 antibody (Pharmingen, Code No. 18062D) as a secondary antibody diluted to 0.5 μg/ml with a blocking buffer containing 0.05% Tween 20 was added thereto (50 μl/well), followed by incubation at room temperature for 1 hour. The plate was washed with a washing buffer four times, strept avidin-labeled peroxidase (ProZyme, Code No. CJ30H001) diluted 800 times with a blocking buffer containing 0.05% Tween 20 was added thereto (50 μl/well), followed by reaction at room temperature for 15 minutes. The plate was washed with a washing buffer four times, and a […] substrate solution (SIGMA, Code No. T-8665) was added thereto in an amount of 100 μl/well for color developing for from 10 to 20 minutes. A 1M sulfuric acid solution was added thereto in an amount of 100 μl/well to terminate the reaction, and absorption (wavelength 450 nm) was measured by means of micro plate reader (SPECTRA max, Wako Pure Chemicals Industries, Ltd.). Quantitative determination of IFN-γ was carried out in the same manner as the measurement of IL-5, employing rat anti-mouse IFN-γ antibody (Pharmingen, Code No. 18181D) and biotin labeled rat anti-mouse IFN-γ antibody (Pharmingen, Code NO. 18112D), as a primary antibody and a secondary antibody, respectively. For preparation of a standard line, recombinant mouse IFN-γ (GENZYME, Code No. 3485) was employed. The experiment was carried out in duplicate, and the average of the cytokine production amount was obtained. […]

[2] = tested on: interferon γ (IFN-γ) production; assay: Cytokine production inhibitory effect: IFN-γ production by murine spleen cells treated with anti-mouse CD3 antibody and IL-2 (ELISA); type: cell-based, Balb/c mice; conditions: anti-CD3 antibody + IL-2, 40 to 48 hours, read-out: IFN-γ production inhibitory ratio (%); for inhibition at 100 ppm: test compound 100 ppm
Procedure: as §1, §2

Cc1cc(C23CC4CC(CC(C4)C2)C3)ccc1NC(=O)c1cc([N+](=O)[O-])ccc1Cl [Compound No. 1]
inhibition at 100 ppm [1]: 96%
inhibition at 100 ppm [2]: 90%
melting point: 219 °C

Cc1cc(-c2nc3ccccc3s2)ccc1NC(=O)c1cc([N+](=O)[O-])ccc1Cl [Compound No. 2]
inhibition at 2 ppm ([1]; test compound 2 ppm): 74%
inhibition at 2 ppm ([2]; test compound 2 ppm): 84%
melting point: 220 to 226 °C

COc1ccc([N+](=O)[O-])c(OC)c1C(=O)Nc1cc(Cl)cc(Cl)c1 [Compound No. 4]
inhibition at 100 ppm [1]: 47%
inhibition at 100 ppm [2]: 76%
melting point: 173 °C

COc1cccc(C(=O)Nc2ccc(Oc3ccc(C(F)(F)F)cn3)c(Cl)c2)c1 [Compound No. 10]
inhibition at 100 ppm [1]: 100%
inhibition at 100 ppm [2]: 100%
melting point: 103 to 105 °C

O=C(Nc1ccc(Oc2ccc(C(F)(F)F)cn2)c(Cl)c1)c1ccc(F)cc1 [Compound No. 12]
inhibition at 100 ppm [1]: 33%
melting point: 174 to 176 °C

O=C(Nc1ccc(Oc2ccc(C(F)(F)F)cn2)c(Cl)c1)c1ccccc1F [Compound No. 13]
inhibition at 100 ppm [1]: 36%
melting point: 141 to 143 °C

O=C(Nc1ccc(Oc2ccccc2)cc1)c1cc([N+](=O)[O-])ccc1Cl [Compound No. 27, N-(4-phenoxyphenyl)-2-chloro-5-nitrobenzamide]
inhibition at 100 ppm [1]: 96%
inhibition at 100 ppm [2]: 99%
melting point: 128 °C

Cc1cc(C23CC4CC(CC(C4)C2)C3)ccc1NC(=O)c1cc([N+](=O)[O-])ccc1Br [Compound No. 46, N-(4-(1-adamantyl)-2-methylphenyl)-2-bromo-5-nitrobenzamide]
inhibition at 100 ppm [1]: 100%
inhibition at 100 ppm [2]: 98%
melting point: 229 °C

Cc1cc(C23CC4CC(CC(C4)C2)C3)ccc1NS(=O)(=O)c1cc([N+](=O)[O-])ccc1Cl [Compound No. 48, N-(4-(1-adamantyl)-2-methylphenyl)-2-chloro-5-nitrobenzenesulfonamide]
inhibition at 100 ppm [1]: 100%
inhibition at 100 ppm [2]: 100%
melting point: 238 °C

Cc1cc(NC(=O)c2cc([N+](=O)[O-])ccc2Cl)ccc1Oc1ncc(C(F)(F)F)cc1Cl [Compound No. 106, N-(4-(3-chloro-5-trifluoromethyl-2-pyridyloxy)-3-methylphenyl)-2-chloro-5-nitrobenzamide]
inhibition at 100 ppm [1]: 83%
inhibition at 100 ppm [2]: 96%
melting point: 230 to 232 °C

O=C(Nc1ccc(OC23CC4CC(CC(C4)C2)C3)nc1)c1cc([N+](=O)[O-])ccc1Cl [Compound No. 123, N-(2-(1-adamantyloxy)-5-pyridyl)-2-chloro-5-nitrobenzamide]
inhibition at 100 ppm [1]: 100%
inhibition at 100 ppm [2]: 100%
melting point: 98 to 105 °C

O=C(Nc1ccc(Oc2ncc(C(F)(F)F)cc2Cl)c(-n2cccc2)c1)c1cc([N+](=O)[O-])ccc1Cl [Compound No. 127, N-(4-(3-chloro-5-trifluoromethyl-2-pyridyloxy)-3-(1-pyrrolyl)phenyl)-2-chloro-5-nitrobenzamide]
inhibition at 100 ppm [1]: 100%
inhibition at 100 ppm [2]: 100%
melting point: 165 to 167 °C

O=C(Nc1ccc(OCc2ncc(C(F)(F)F)cc2Cl)cc1)c1cc([N+](=O)[O-])ccc1Cl [Compound No. 135, N-(4-(3-chloro-5-trifluoromethyl-2-pyridylmethyloxy)phenyl)-2-chloro-5-nitrobenzamide]
inhibition at 100 ppm [1]: 62%
inhibition at 100 ppm [2]: 33%
melting point: 193 to 195 °C

Cc1cc(C23CC4CC(CC(C4)C2)C3)ccc1NC(=O)c1ccc(Cl)cc1Cl [compound 3]
inhibition at 100 ppm [1]: 79%
inhibition at 100 ppm [2]: 92%
melting point: 211 °C

O=C(Nc1ccc(Oc2ccc(C(F)(F)F)cn2)c(Cl)c1)c1ccc(Cl)cc1 [compound 5]
inhibition at 100 ppm [1]: 76%
inhibition at 100 ppm [2]: 83%
melting point: 186 to 188 °C

O=C(Nc1ccc(Oc2ccc(C(F)(F)F)cn2)c(Cl)c1)c1ccc(F)cc1F [compound 11]
inhibition at 100 ppm [1]: 37%
melting point: 145 to 147 °C

O=C(Nc1ccc(Oc2ccc(C(F)(F)F)cn2)c(Cl)c1)c1ccccc1 [compound 14]
inhibition at 100 ppm [1]: 46%
melting point: 170 to 172 °C

O=C(Nc1ccc(Oc2ccc(C(F)(F)F)cn2)c(Cl)c1)c1cc(Cl)cc(Cl)c1O [compound 16]
inhibition at 100 ppm [1]: 100%
melting point: 176 to 178 °C

Cc1ccccc1NC(=O)c1cc([N+](=O)[O-])ccc1Cl [compound 19]
inhibition at 100 ppm [1]: 96%
inhibition at 100 ppm [2]: 88%

Cc1cc(C23CC4CC(CC(C4)C2)C3)ccc1NS(=O)(=O)c1cc(Cl)ccc1Cl [compound 24]
inhibition at 100 ppm [1]: 100%
melting point: 200 °C

O=C(Nc1ccccc1C(F)(F)F)c1cc([N+](=O)[O-])ccc1Cl [compound 39]
inhibition at 100 ppm [1]: 97%
inhibition at 100 ppm [2]: 100%

O=C(Nc1ccc(Nc2ccccc2)cc1)c1cc([N+](=O)[O-])ccc1Cl [compound 65]
inhibition at 100 ppm [1]: 100%
inhibition at 100 ppm [2]: 100%

O=C(Nc1ccc(Oc2ccc(C(F)(F)F)cn2)c(Cl)c1)c1ccccc1Cl [compound 71]
inhibition at 100 ppm [1]: 89%
melting point: 168 to 169 °C

O=C(Nc1ccc(Oc2ccc(C(F)(F)F)cn2)c(Cl)c1)c1ccc(Oc2ccc(C(F)(F)F)cn2)c(Cl)c1 [compound 72]
inhibition at 100 ppm [1]: 51%
melting point: 206 to 209 °C

O=C(Nc1ccc(Oc2ccc(C(F)(F)F)cc2Cl)cc1)c1cc([N+](=O)[O-])ccc1F [compound 95]
inhibition at 100 ppm [1]: 100%
inhibition at 100 ppm [2]: 100%

Cc1cc(C23CC4CC(CC(C4)C2)C3)ccc1N(C)C(=O)c1cc([N+](=O)[O-])ccc1Cl [compound 102]
inhibition at 100 ppm [1]: 100%
inhibition at 100 ppm [2]: 100%

O=C(Nc1ccc([S+]([O-])c2ncc(C(F)(F)F)cc2Cl)cc1)c1cc([N+](=O)[O-])ccc1Cl (stereo not drawn) [compound 103]
inhibition at 100 ppm [1]: 100%
inhibition at 100 ppm [2]: 100%

O=C(Nc1ccc(S(=O)(=O)c2ncc(C(F)(F)F)cc2Cl)cc1)c1cc([N+](=O)[O-])ccc1Cl [compound 104]
inhibition at 100 ppm [1]: 100%
inhibition at 100 ppm [2]: 100%

O=C(Nc1ccc(Oc2ncc(C(F)(F)F)cc2Cl)c([N+](=O)[O-])c1)c1cc([N+](=O)[O-])ccc1Cl [compound 108]
melting point: 233 to 236 °C

O=C(Nc1ccc(Oc2ncc(C(F)(F)F)cc2Cl)c(C2CCCCC2)c1)c1cc([N+](=O)[O-])ccc1Cl [compound 114]
inhibition at 100 ppm [1]: 100%
inhibition at 100 ppm [2]: 100%

O=C(Nc1ccc(OC2C3CC4CC(C3)CC2C4)nc1)c1cc([N+](=O)[O-])ccc1Cl (stereo not drawn) [compound 124]
inhibition at 100 ppm [1]: 100%
inhibition at 100 ppm [2]: 100%

O=C(Nc1ccc(OC23CC4CC(CC(C4)C2)C3)cc1)c1cc([N+](=O)[O-])ccc1Cl [compound 134]
inhibition at 100 ppm [1]: 97%
inhibition at 100 ppm [2]: 98%

O=C(Nc1ccc(NC23CC4CC(CC(C4)C2)C3)nc1)c1cc([N+](=O)[O-])ccc1Cl [compound 147]
inhibition at 100 ppm [1]: 99%
inhibition at 100 ppm [2]: 100%
